Read-outs that look alike come from different tables or passages of the source.
Key:
[1] = test system: HCV genotype 1a (H77 strain) replicon in HUH-7 cells; assay: HCV replicon luciferase reporter assay, genotype 1a; type: cell-based; conditions: Hepatitis C virus, Huh-7, 72 h, 3 days incubation, read-out: LE_1a (EC50, range)
How it was run: (§1)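 Twenty-point, threefold compound titrations (0.5% DMSO) were incubated 3 days at 37 °C with 3.0×10^3 HUH-7 cells/well in 4% FCS. The cells stably carried luciferase replicons: genotype 1b Con1 (S1179I) or 1a H77 (NS3 P1496L, NS5A S2204I). Renilla signal was read after 2 h with 7.5 μM EnduRen, and EC50 was taken from a four-parameter logistic fit. Cytotoxicity (CC50) was measured by Cell Titer-Blue, 8 h.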

[2] = test system: HCV genotype 1b (Con1) replicon in HUH-7 cells; assay: HCV replicon luciferase reporter assay, genotype 1b; type: cell-based; conditions: Hepatitis C virus, 72 h, 3 days incubation, read-out: LE_1b (EC50, range)
How it was run: as §1

[3] = HCV genotype 1a replicon luciferase, class symbols
[4] = HCV genotype 1b replicon luciferase, class symbols
[5] = HCV genotype 1a replicon luciferase, range class
[6] = HCV genotype 1b replicon luciferase, range class

SMILES | EC50 [1, 3] | EC50 [2, 4] | also measured
COCCOc1cc2c(Cl)cccc2c(O[C@@H]2C[C@H]3C(=O)N[C@]4(C(=O)NS(=O)(=O)C5(C)CC5)C[C@H]4/C=C\CC[C@@H](C)C[C@@H](C)[C@H](NC(=O)OC(C)(C)C(F)(F)F)C(=O)N3C2)n1 [Compound 1114, 1,1,1-trifluoro-2-methylpropan-2-yl ((2R,6S,7R,9R,13aS,14aR,16aS,Z)-2-((5-chloro-3-(2-methoxyethoxyl)isoquinolin-1-yl)oxy)-7,9-dimethyl-14a-(((1-methylcyclopropyl)sulfonyl)carbamoyl)-5,16-dioxo-1,2,3,5,6,7,8,9,10,11,13a,14,14a,15,16,16a-hexadecahydrocyclopropa[e]pyrrolo[1,2-a][1,4]diazacyclopentadecin-6-yl)carbamate] | – | – | EC50 ([1]; HCV genotype 1a replicon luciferase reporter, range class): < 5.46 nM; EC50 ([2]; HCV genotype 1b replicon luciferase reporter, range class): < 5.46 nM
CCOc1ccc2c(O[C@@H]3C[C@H]4C(=O)N[C@]5(C(=O)NS(=O)(=O)C6CC6)C[C@H]5/C=C\CC[C@H](C)C[C@@H](C)[C@H](NC(=O)O[C@@H]5C[C@@H]6C[C@@H]6C5)C(=O)N4C3)nccc2c1 [Compound 5131, (1R,3r,5S)-bicyclo[3.1.0]hexan-3-yl ((2R,6S,7R,9S,13aS,14aR,16aS,Z)-14a-((cyclopropylsulfonyl)carbamoyl)-2-((6-ethoxyisoquinolin-1-yl)oxy)-7,9-dimethyl-5,16-dioxo-1,2,3,5,6,7,8,9,10,11,13a,14,14a,15,16,16a-hexadecahydrocyclopropa[e]pyrrolo[1,2-a][1,4]diazacyclopentadecin-6-yl)carbamate] | < 5.46 nM | < 5.46 nM | –
CC[C@@H]1C[C@H](C)CC/C=C\[C@@H]2C[C@@]2(C(=O)NS(=O)(=O)C2CC2)NC(=O)[C@@H]2C[C@@H](Oc3ncc(OC)c4ccccc34)CN2C(=O)[C@H]1NC(=O)OC(C)(C)C [Compound 4007, tert-butyl (2R,6S,7R,9R,13aS,14aR,16aS,Z)-14a-(cyclopropylsulfonylcarbamoyl)-7-ethyl-2-(4-methoxyisoquinolin-1-yloxy)-9-methyl-5,16-dioxo-1,2,3,5,6,7,8,9,10,11,13a,14,14a,15,16,16a-hexadecahydrocyclopropa[e]pyrrolo[1,2-a][1,4]diazacyclopentadecin-6-ylcarbamate] | < 5.46 nM | < 5.46 nM | –
COc1ccc2c(O[C@@H]3C[C@H]4C(=O)N[C@]5(C(=O)NS(=O)(=O)C6(CF)CC6)C[C@H]5/C=C\CC[C@@H](C)C[C@@H](C)[C@H](NC(=O)OC(C)(C)C(F)(F)F)C(=O)N4C3)ccnc2c1 [Compound 4198, 1,1,1-trifluoro-2-methylpropan-2-yl (2R,6S,7R,9R,13aS,14aR,16aS,Z)-14a-(1-(fluoromethyl)cyclopropylsulfonylcarbamoyl)-2-(7-methoxyquinolin-4-yloxy)-7,9-dimethyl-5,16-dioxo-1,2,3,5,6,7,8,9,10,11,13a,14,14a,15,16,16a-hexadecahydrocyclopropa[e]pyrrolo[1,2-a][1,4]diazacyclopentadecin-6-ylcarbamate] | 4.82 to 103 nM | < 5.46 nM | –
C[C@@H]1CC/C=C\[C@@H]2C[C@@]2(C(=O)NS(=O)(=O)C2(C)CC2)NC(=O)[C@@H]2C[C@@H](Oc3nccc4c(N5CCOCC5)cccc34)CN2C(=O)[C@@H](NC(=O)OC(C)(C)C(F)(F)F)[C@H](C)C1 [Compound 5124, 1,1,1-trifluoro-2-methylpropan-2-yl ((2R,6S,7R,9R,13aS,14aR,16aS,Z)-7,9-dimethyl-14a-(((1-methylcyclopropyl)sulfonyl)carbamoyl)-2-((5-morpholinoisoquinolin-1-yl)oxy)-5,16-dioxo-1,2,3,5,6,7,8,9,10,11,13a,14,14a,15,16,16a-hexadecahydrocyclopropa[e]pyrrolo[1,2-a][1,4]diazacyclopentadecin-6-yl)carbamate] | < 5.46 nM | < 5.46 nM | –
CCOc1ccc2c(O[C@@H]3C[C@H]4C(=O)N[C@]5(C(=O)NS(=O)(=O)C6CC6)C[C@H]5/C=C\CC[C@@H](C)C[C@@H](C)[C@H](NC(=O)OC(C)(C)C(F)(F)F)C(=O)N4C3)nccc2c1 [Compound 5130, 1,1,1-trifluoro-2-methylpropan-2-yl ((2R,6S,7R,9R,13aS,14aR,16aS,Z)-14a-((cyclopropylsulfonyl)carbamoyl)-2-((6-ethoxyisoquinolin-1-yl)oxy)-7,9-dimethyl-5,16-dioxo-1,2,3,5,6,7,8,9,10,11,13a,14,14a,15,16,16a-hexadecahydrocyclopropa[e]pyrrolo[1,2-a][1,4]diazacyclopentadecin-6-yl)carbamate] | < 5.46 nM | < 5.46 nM | –
[2H]C([2H])([2H])C(OC(=O)N[C@@H]1C(=O)N2C[C@H](Oc3nccc4cc(OC)ccc34)C[C@H]2C(=O)N[C@]2(C(=O)NS(=O)(=O)C3(C)CC3)C[C@H]2/C=C\CC[C@@H](C)C[C@H]1C)(C([2H])([2H])[2H])C(F)(F)F [Compound 5175, 1,1,1,3,3,3-hexadeutero-2-(trifluoromethyl)propan-2-yl ((2R,6S,7R,9R,13aS,14aR,16aS,Z)-2-((6-methoxyisoquinolin-1-yl)oxy)-7,9-dimethyl-14a-(((1-methylcyclopropyl)sulfonyl)carbamoyl)-5,16-dioxo-1,2,3,5,6,7,8,9,10,11,13a,14,14a,15,16,16a-hexadecahydrocyclopropa[e]pyrrolo[1,2-a][1,4]diazacyclopentadecin-6-yl)carbamate] | – | – | EC50 [1, 5]: < 5.46 nM; EC50 [2, 6]: < 5.46 nM
[2H]C([2H])([2H])C(C)(OC(=O)N[C@@H]1C(=O)N2C[C@H](Oc3nccc4cc(OC)ccc34)C[C@H]2C(=O)N[C@]2(C(=O)NS(=O)(=O)C3(C)CC3)C[C@H]2/C=C\CC[C@@H](C)C[C@H]1C)C([2H])([2H])[2H] [Compound 5177, 1,1,1,3,3,3-hexadeutero-2-methylpropan-2-yl ((2R,6S,7R,9R,13aS,14aR,16aS,Z)-2-((6-methoxyisoquinolin-1-yl)oxy)-7,9-dimethyl-14a-(((1-methylcyclopropyl)sulfonyl)carbamoyl)-5,16-dioxo-1,2,3,5,6,7,8,9,10,11,13a,14,14a,15,16,16a-hexadecahydrocyclopropa[e]pyrrolo[1,2-a][1,4]diazacyclopentadecin-6-yl)carbamate] | – | – | EC50 [1, 5]: < 5.46 nM; EC50 [2, 6]: < 5.46 nM
COc1ccc2c(O[C@@H]3C[C@H]4C(=O)N[C@]5(C(=O)NS(=O)(=O)C6(C)CC6)C[C@H]5/C=C\CC[C@@H](C)C[C@@H](C)[C@H](NC(=O)OC(C)(C)C)C(=O)N4C3)ncc(N3CCN(S(C)(=O)=O)CC3)c2c1 [Compound 4121, tert-butyl (2R,6S,7R,9R,13aS,14aR,16aS,Z)-2-(6-methoxy-4-(4-(methylsulfonyl)piperazin-1-yl)isoquinolin-1-yloxy)-7,9-dimethyl-14a-(1-methylcyclopropylsulfonylcarbamoyl)-5,16-dioxo-1,2,3,5,6,7,8,9,10,11,13a,14,14a,15,16,16a-hexadecahydrocyclopropa[e]pyrrolo[1,2-a][1,4]diazacyclopentadecin-6-ylcarbamate] | < 5.46 nM | < 5.46 nM | –

Reference: patent US9527885B2, “Hepatitis C virus inhibitors” (BRISTOL-MYERS SQUIBB COMPANY, priority 2011, dated 2016)
